For this assay, the target named is T1, recombinant human GR (Homo sapiens, UniProt P04150).
T1 construct: purchased Panvera/Invitrogen P2812 (kit P2893)
T1 sequence (P04150 1-777): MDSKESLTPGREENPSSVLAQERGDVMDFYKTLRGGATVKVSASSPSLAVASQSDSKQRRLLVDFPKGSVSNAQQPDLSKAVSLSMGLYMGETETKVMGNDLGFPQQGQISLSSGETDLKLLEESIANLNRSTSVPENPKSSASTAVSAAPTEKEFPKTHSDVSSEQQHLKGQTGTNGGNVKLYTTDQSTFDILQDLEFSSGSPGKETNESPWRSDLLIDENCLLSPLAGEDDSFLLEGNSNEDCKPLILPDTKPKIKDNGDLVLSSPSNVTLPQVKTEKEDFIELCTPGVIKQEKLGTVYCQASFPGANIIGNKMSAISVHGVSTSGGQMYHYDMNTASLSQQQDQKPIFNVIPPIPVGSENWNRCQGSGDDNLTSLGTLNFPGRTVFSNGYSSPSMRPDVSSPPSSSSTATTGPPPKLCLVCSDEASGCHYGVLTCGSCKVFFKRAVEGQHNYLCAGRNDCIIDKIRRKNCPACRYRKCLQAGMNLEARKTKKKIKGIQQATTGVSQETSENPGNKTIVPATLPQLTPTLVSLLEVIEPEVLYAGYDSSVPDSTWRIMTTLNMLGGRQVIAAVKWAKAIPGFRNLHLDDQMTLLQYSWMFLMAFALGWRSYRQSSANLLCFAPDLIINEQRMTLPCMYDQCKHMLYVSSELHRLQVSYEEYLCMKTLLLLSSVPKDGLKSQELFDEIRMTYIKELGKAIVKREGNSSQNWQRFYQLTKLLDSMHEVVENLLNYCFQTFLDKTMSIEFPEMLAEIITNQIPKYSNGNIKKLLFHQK
In words: Human Glucocorticoid Receptor (GR) Assay, fluorescence polarization. As to conditions: GS Red tracer, 2 hours at room temperature, 100% control 10 μM Dexamethasone, read-out: Inhibition of GR binding, IC50. On the procedure:
Human Glucocorticoid Receptor (GR) Assay The assay is based on a commercial kit from Panvera/Invitrogen (Part number P2893). The assay technology is fluorescence polarization. The kit utilises recombinant human GR (Panvera, Part number P2812), a Fluoromone™ labelled tracer (GS Red, Panvera, Part number P2894) and a Stabilizing Peptide 10× (Panvera, Part number P2815). The GR and Stabilizing Peptide reagents are stored at −70° C. while the GS Red is stored at −20° C. Also included in the kit are 1M DTT (Panvera, Part number P2325, stored at −20° C.) and GR Screening buffer 10× (Panvera, Part number P2814, stored at −70° C. initially but once thawed stored at room temperature). Avoid repeated freeze/thaws for all reagents. The GR Screening buffer 10× comprises 100 mM potassium phosphate, 200 mM sodium molybdate, 1 mM EDTA and 20% DMSO. Test compounds (1 μL) and controls (1 μL) in 100% DMSO were added to black polystyrene 384-well plates (Greiner low volume black flat-bottom, part number 784076). 0% control was 100% DMSO and 100% control was 10 μM Dexamethasone. Background solution (8 μL; assay buffer 10×, Stabilizing Peptide, DTT and ice cold MQ water) was added to the background wells. GS Red solution (7 μL; assay buffer 10×, Stabilizing Peptide, DTT, GS Red and ice cold water) was added to all wells except background wells. GR solution (7 μL; assay buffer 10×, Stabilizing Peptide, DTT, GR and ice cold water) was added to all wells. The plate was sealed and incubated in a dark at room temperature for 2 hours. The plate was read in an Analyst plate reader (LJL Biosystems/Molecular Devices Corporation) or other similar plate reader capable of recording fluorescence polarization (excitation wavelength 530 nm, emission wavelength 590 nm and a dichroic mirror at 561 nm).
For orientation: Polarisation of emitted light reports the rotation of a fluorescent probe.

The IC50 is the midpoint of a concentration-inhibition curve. With `CCC(=O)O[C@]1(C(=O)SCC#N)CC[C@H]2[C@@H]3C=C(C)C4=Cc5c(cnn5-c5ccc(F)nc5)C[C@]4(C)[C@H]3[C@@H](O)C[C@@]21C` [Example 2, (1R,3aS,3bS,10aR,10bS,11S,12aS)-1-{[(Cyanomethyl)sulfanyl]carbonyl}-7-(6-fluoropyridin-3-yl)-11-hydroxy-5,10a,12a-trimethyl-1,2,3,3a,3b,7,10,10a,10b,-11,12,12a-dodecahydrocyclopenta[5,6]naphtho[1,2-f]indazol-1-yl propanoate], the IC50 is 2.1 nM.
Consider `CC1=C[C@@H]2[C@H]([C@@H](O)C[C@@]3(C)[C@H]2CC[C@]3(OC(=O)c2cocn2)C(=O)SCC#N)[C@@]2(C)Cc3cnn(-c4ccc(F)nc4)c3C=C12` [Example 15, (1R,3aS,3bS,10aR,10bS,11S,12aS)-1-{[cyanomethyl)sulfanyl]carbonyl}-7-(6-fluoropyridin-3-yl)-11-hydroxy-5,10a,12a-trimethyl-1,2,3,3a,3b,7,10,10a,10b,11,12,12a-dodecahydrocyclopenta[5,6]naphtho [1,2-f]indazol-1-yl 1,3-oxazole-4-carboxylate], for which the half-inhibitory concentration (IC50) was determined as 3.7 nM.
As for `COCC(=O)O[C@]1(C(=O)SCC#N)CC[C@H]2[C@@H]3C=CC4=Cc5c(cnn5-c5ccc(F)nc5)C[C@]4(C)[C@H]3[C@@H](O)C[C@@]21C` [Example 7, (1R,3aS,3bS,10aR,10bS,11S,12aS)-1-{[(cyanomethyl)sulfanyl]carbonyl}-7-(6-fluoropyridin-3-yl)-11-hydroxy-10a,12a-dimethyl-1,2,3,3a,3b,7,10,10a,10b,11,12,12a-dodecahydrocyclopenta[5,6]naphtho [1,2-f]indazol-1-yl methoxyacetate], the figure is 0.87 nM.
For the compound `CC1=C[C@@H]2[C@H]([C@@H](O)C[C@@]3(C)[C@H]2C[C@@H](C)[C@]3(OC(=O)c2ccco2)C(=O)SCC#N)[C@@]2(C)Cc3cnn(-c4ccccc4)c3C=C12` [Example 18, (1R,2R,3aS,3bS,10aR,10bS,11S,12aS)-1-{[(cyanomethyl)sulfanyl]carbonyl}-11-hydroxy-2,5,10a,12a-tetramethyl-7-phenyl-1,2,3,3a,3b,7,10,10a,- 10b,11,12,12a-dodecahydro-cyclopenta[5,6]naphtho[1,2-f]indazol-1-yl furan-2-carboxylate], the IC50 is 12 nM.
The result for `CC1=C[C@@H]2[C@H]([C@@H](O)C[C@@]3(C)[C@H]2CC[C@]3(OC(=O)c2cocn2)C(=O)SCF)[C@@]2(C)Cc3cnn(-c4ccc(F)nc4)c3C=C12` [Example 14, (1R,3aS,3bS,10aR,10bS,11S,12aS)-1-{[(fluoromethyl)sulfanyl]carbonyl}-7-(6-fluoropyridin-3-yl)-11-hydroxy-5,10a,12a-trimethyl-1,2,3,3a,3b,7,10,10a,10b,11,12,12a-dodecahydrocyclopenta[5,6]naphtho [1,2-f]indazol-1-yl 1,3-oxazole-4-carboxylate] reads 2.9 nM.

The values above are taken from patent US20100256105A1, “NOVEL COMPOUNDS” (AstraZeneca R&D, priority 2009, published 2010).
